Measured values reported in article PMC10500568, “Inhibition of MurA Enzyme from Escherichia coli by Flavonoids and Their Synthetic Analogues” (ACS Omega, 2023).
Converted amounts (≈) assume the structure as drawn. Read-outs that look alike come from different tables or passages of the source.

Columns and labels:
MurA enzyme from E. coli [1] = biological target: T1, MurA enzyme from E. coli (Escherichia coli, UniProt P0A749); test: MurA dilution assay; assay type: biochemical; conditions: for RA% (residual activity), dilution assay: compound at 10 times IC50, 30 min preincubation, then 100-fold dilution
T1 sequence (P0A749 whole entry): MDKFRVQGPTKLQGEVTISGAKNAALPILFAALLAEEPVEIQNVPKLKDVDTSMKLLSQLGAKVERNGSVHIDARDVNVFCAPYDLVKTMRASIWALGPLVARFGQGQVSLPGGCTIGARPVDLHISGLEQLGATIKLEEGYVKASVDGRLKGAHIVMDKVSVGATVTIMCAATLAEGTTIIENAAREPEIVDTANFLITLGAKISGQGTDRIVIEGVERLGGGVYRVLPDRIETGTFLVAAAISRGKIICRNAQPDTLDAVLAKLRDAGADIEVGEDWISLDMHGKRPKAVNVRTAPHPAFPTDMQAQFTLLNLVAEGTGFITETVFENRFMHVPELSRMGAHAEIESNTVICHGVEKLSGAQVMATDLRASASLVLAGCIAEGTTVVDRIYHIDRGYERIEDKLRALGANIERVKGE
Experimental: The enzyme concentration used was the usual concentration in reactivity assays 100-fold (25 μM). After 30 min of preincubation, the mixture was diluted 100-fold, then the previously described reactivity assay was performed using 100 μM PEP.

S. aureus (ATCC 29213) = test: Antibacterial assay, broth microdilution MIC; assay type: cell-based, Staphylococcus aureus; conditions: for MIC: Staphylococcus aureus, read-out: MIC S. aureus; for inhibition of S. aureus growth: broth microdilution
Experimental: (§1) To test antimicrobial properties, a broth microdilution method in 96-well plates was used according to Clinical and Laboratory Standards Institute guidelines[31] and European Committee on Antimicrobial Susceptibility Testing ([…]) recommendations.[32] Bacterial suspensions, equivalent to a 0.5 McFarland turbidity standard, were diluted with cation-adjusted Mueller–Hinton broth with TES buffering (ThermoFisher Scientific) to achieve a final inoculum of 10^5 CFU/mL. Compounds dissolved in 100% DMSO at a concentration of 10 mM were mixed with the inoculum and incubated at 35 °C for 20 h.

MurA enzyme from E. coli [2] = biological target: T1, MurA enzyme from E. coli; test: MurA inhibition assay (malachite green, orthophosphate release); assay type: biochemical; conditions: for inhibitory activity on MurA in at least one of the three assays: residual activity at 100 μM, threshold 50% RA, no preincubation, 30 min preincubation, or 30 min + DTT; for effect of DTT on inhibition (comparison of RAs): in the presence of DTT; for remaining activity at 100 µM / time-dependent inhibition: inactive without preincubation, activity after 30 min of preincubation: 100 μM; for time-dependent inhibition: inactive without preincubation, activity after 30 min of preincubation: 0 min vs 30 min preincubation
Experimental: To determine the inhibition of MurA, the colorimetric assay with malachite green was used to measure the release of orthophosphate generated during the reaction.[30] […] Time-dependent inhibition assays were also performed by preincubating MurA with the 200 μM UNAG substrate and target compounds for 30 min at 37 °C before starting the reaction with the addition of the second substrate 100 μM PEP, resulting in a final mixture volume of 50 μL. The reaction was stopped after a 15 min incubation at 37 °C by adding the Biomol reagent (100 μL, Enzo Life Sciences, New York), and the absorbance was measured after 5 min at 650 nm using a microplate reader (BioTek, Synergy H4). The final concentration of DMSO in the reaction mixture was 5% (v/v), and 1 μM fosfomycin was used as a reference in the MurA assay. The percentage of residual activity was calculated in comparison to the negative controls, which contained only 5% DMSO. IC50 values were determined by measuring residual activities at 7 different concentrations of the compounds and calculated using GraphPad Prism (GraphPad Software, San Diego, California).
The initial screening of flavonoids was performed under three different assay conditions: (1) without preincubation, (2) with a 30 min preincubation, and (3) with the addition of dithiothreitol (DTT) along with a 30 min preincubation. These different conditions were necessary to understand the mechanism of inhibition of each flavonoid. […] To distinguish whether the adduct formed between the inhibitor and the enzyme was covalent or noncovalent, the inhibitory activity was tested in the presence of 0.1 mM DTT.

E. coli (ATCC 25922) = test: Antibacterial assay, broth microdilution MIC; assay type: cell-based, Escherichia coli; conditions: for MIC: Escherichia coli, read-out: MIC E. coli
Experimental: as §1

S. aureus = system: S. aureus; set-up: method as in PMID 18313801; conditions: cited from earlier work
[3] = ATCC29213, S. aureus ATCC 29213, 35 °C, 20 h
[4] = 30 min preincubation with addition of DTT (0.1 mM), read-out: RA% (residual activity), 30 min + DTT
[5] = 30 min preincubation, read-out: IC50, 30 min
[6] = without preincubation, read-out: IC50, 0 min
[7] = ATCC25922, E. coli ATCC 25922, 35 °C, 20 h
[8] = without preincubation, read-out: RA% (residual activity), 0 min

Structure (SMILES)	RA% (residual activity), dilution assay (MurA enzyme from E. coli [1]) [%]	MIC (S. aureus (ATCC 29213); [3]) [µM]	inhibition of S. aureus growth (S. aureus (ATCC 29213))	Hill coefficient (dose-response curves at 0 and 30 min) (MurA enzyme from E. coli [2])	remaining activity at 100 µM (MurA enzyme from E. coli [2]; [4]) [%]	Hill coefficient, 30 min (MurA enzyme from E. coli [2]; 30 min preincubation)	IC50 (MurA enzyme from E. coli [2]; [5]) [µM]	inhibitory activity on MurA in at least one of the three assays (MurA enzyme from E. coli [2])	Hill coefficient, 0 min (MurA enzyme from E. coli [2]; without preincubation)	IC50 (MurA enzyme from E. coli [2]; [6]) [µM]	MIC (E. coli (ATCC 25922); [7]) [µM]	effect of DTT on inhibition (comparison of RAs) (MurA enzyme from E. coli [2]; 30 min preincubation)	MIC (S. aureus (ATCC 29213); ATCC29213, 20 h) [µM]	time-dependent inhibition: inactive without preincubation, activity after 30 min of preincubation (MurA enzyme from E. coli [2])	remaining activity at 100 µM (MurA enzyme from E. coli [2]; [8]) [%]	MIC (E. coli (ATCC 25922); ATCC25922, 20 h) [µM]	antibacterial activity against S. aureus, previous report (S. aureus) [µg/mL]	inhibitory activity after dilution (MurA enzyme from E. coli [1]; dilution assay)	effect on E. coli growth (E. coli (ATCC 25922); broth microdilution)
O=C1c2c(O)cc(O)cc2O[C@H](c2cc(O)c(O)c(O)c2)[C@H]1O [Compound 49, ampelopsin]	100	125 (≈ 40 µg/mL)	weak inhibition	~1	101	0.8	0.48	showed inhibitory activity	0.8	36	> 250	–	–	–	–	–	–	–	–
O=c1cc(-c2ccccc2)oc2c(O)c(O)ccc12 [Compound 25, 7,8-dihydroxyflavone]	100	125 (≈ 31.8 µg/mL)	weak inhibition	–	89	1.4	12.9	showed inhibitory activity	2	88	> 250	–	–	–	–	–	–	–	–
Oc1cc(O)c2c(c1)O[C@H](c1ccc(O)c(O)c1)[C@@H](O)[C@H]2O [Compound 35, leucocyanidin]	–	> 250	–	> 2.5	13	2.9	28.6	showed inhibitory activity	2.6	69	> 250	reduced inhibition in the presence of DTT	–	–	–	–	–	–	–
C[C@@H]1O[C@@H](Oc2c(-c3ccc(O)c(O)c3)oc3cc(O)cc(O)c3c2=O)[C@H](O)[C@H](O)[C@H]1O [Compound 10, quercitrin]	88	–	–	–	103	1.1	33	showed inhibitory activity	–	–	–	–	> 250	active after 30 min of preincubation	66	> 250	–	–	–
COc1cc(O)c2c(=O)c(O)c(-c3ccc(O)c(O)c3)oc2c1 [Compound 8, rhamnetin]	77	> 250	–	–	58	1.1	13	showed inhibitory activity	1.1	96	> 250	reduced inhibition in the presence of DTT	–	–	–	–	–	–	–
O=c1cc(-c2ccc(O)c(O)c2)oc2cc(O)cc(O)c12 [Compound 17, luteolin]	91	125 (≈ 35.8 µg/mL)	weak inhibition	–	96	1.3	41.5	showed inhibitory activity	–	–	> 250	–	–	–	68	–	50	–	–
O=c1cc(-c2ccccc2)oc2cc(O)c(O)c(O)c12 [Compound 26, baicalein]	50	31 (≈ 8.38 µg/mL)	weak inhibition	–	86	1.4	61	showed inhibitory activity	–	–	> 250	–	–	active after 30 min of preincubation	66	–	–	retained some inhibitory activity	had no effect
O=c1c(O)c(-c2cc(O)c(O)c(O)c2)oc2cc(O)cc(O)c12 [Compound 4, myricetin]	84	> 250	–	–	34	1.9	–	showed inhibitory activity	0.8	–	> 250	reduced inhibition in the presence of DTT	–	active after 30 min of preincubation	–	–	–	–	–
